# Reference: ChEMBL document CHEMBL2390951, “Impact of fluorination on proteolytic stability of peptides in human blood plasma” (Bioorg Med Chem, 2013)
# Non-standard residues stand in square brackets, D forms with d. Residues, ends and D or L forms follow the SMILES beside them. Abu(4,4,4-F3) = N[C@@H](CC(F)(F)F)C(=O)O; Abu(4,4-F2) = N[C@@H](CC(F)F)C(=O)O; 4Abz = Nc1ccc(C(=O)O)cc1; Abu = CC[C@H](N)C(=O)O
# Tested on: not listed separately
# Experiment: (§1) Proteolytic stability in human plasma assessed as compound degradation at 1:3 compound to plasma ratio after 2 hrs by RP-HPLC analysis relative to control
# Assay type: ADME, cell-free
# Settings: read-out: Drug degradation
row,metabolised at 2 h,SMILES
1,≤ 35%,"C[C@H](NC(=O)[C@H](C)NC(=O)[C@H](CC(F)F)NC(=O)[C@H](C)NC(=O)[C@H](Cc1ccccc1)NC(=O)[C@H](C)NC(=O)[C@H](C)NC(=O)[C@H](CCCCN)NC(=O)c1ccc(N)cc1)C(=O)N[C@@H](CCCCN)C(=O)O (H-[4Abz]KAAFA[Abu(4,4-F2)]AAK-OH) [listing 1 of 2 here]"

# Tested on: Plasma
# Experiment: as §1
# Assay type: ADME, cell-free
# Settings: 2 h
row,SMILES,Stability
1,CC[C@H](NC(=O)[C@H](C)NC(=O)[C@H](Cc1ccccc1)NC(=O)[C@H](C)NC(=O)[C@H](C)NC(=O)[C@H](CCCCN)NC(=O)c1ccc(N)cc1)C(=O)N[C@@H](C)C(=O)N[C@@H](C)C(=O)N[C@@H](CCCCN)C(=O)O.O=C(O)C(F)(F)F (H-[4Abz]KAAFA[Abu]AAK-OH),Stable
2,CC[C@H](NC(=O)[C@H](C)NC(=O)[C@H](CCCCN)NC(=O)c1ccc(N)cc1)C(=O)N[C@@H](Cc1ccccc1)C(=O)N[C@@H](C)C(=O)N[C@@H](C)C(=O)N[C@@H](C)C(=O)N[C@@H](C)C(=O)N[C@@H](CCCCN)C(=O)O.O=C(O)C(F)(F)F (H-[4Abz]KA[Abu]FAAAAK-OH),Stable

# The remaining lines, values ahead:
row,Stability,SMILES
1,Stable,"C[C@H](NC(=O)[C@H](C)NC(=O)[C@H](CC(F)(F)F)NC(=O)[C@H](Cc1ccccc1)NC(=O)[C@H](C)NC(=O)[C@H](C)NC(=O)[C@H](CCCCN)NC(=O)c1ccc(N)cc1)C(=O)N[C@@H](C)C(=O)N[C@@H](CCCCN)C(=O)O.O=C(O)C(F)(F)F (H-[4Abz]KAAF[Abu(4,4,4-F3)]AAAK-OH)"
2,Unstable,"C[C@H](NC(=O)[C@H](C)NC(=O)[C@H](CC(F)(F)F)NC(=O)[C@H](C)NC(=O)[C@H](Cc1ccccc1)NC(=O)[C@H](C)NC(=O)[C@H](C)NC(=O)[C@H](CCCCN)NC(=O)c1ccc(N)cc1)C(=O)N[C@@H](CCCCN)C(=O)O.O=C(O)C(F)(F)F (H-[4Abz]KAAFA[Abu(4,4,4-F3)]AAK-OH)"

# Tested on: not listed separately
# Experiment: Proteolytic stability in Tris-HCl buffer assessed as compound degradation at 20 umol/ml after 2 hrs by RP-HPLC analysis in presence of elastase relative to control
# Assay type: ADME
# Settings: buffer, 2 h
row,SMILES,Stability
1,CC[C@H](NC(=O)[C@H](C)NC(=O)[C@H](Cc1ccccc1)NC(=O)[C@H](C)NC(=O)[C@H](C)NC(=O)[C@H](CCCCN)NC(=O)c1ccc(N)cc1)C(=O)N[C@@H](C)C(=O)N[C@@H](C)C(=O)N[C@@H](CCCCN)C(=O)O (H-[4Abz]KAAFA[Abu]AAK-OH),Stable
2,"C[C@H](NC(=O)[C@H](C)NC(=O)[C@H](CC(F)F)NC(=O)[C@H](C)NC(=O)[C@H](Cc1ccccc1)NC(=O)[C@H](C)NC(=O)[C@H](C)NC(=O)[C@H](CCCCN)NC(=O)c1ccc(N)cc1)C(=O)N[C@@H](CCCCN)C(=O)O (H-[4Abz]KAAFA[Abu(4,4-F2)]AAK-OH) [listing 2 of 2 here]",Stable
3,CC[C@H](NC(=O)[C@H](Cc1ccccc1)NC(=O)[C@H](C)NC(=O)[C@H](C)NC(=O)[C@H](CCCCN)NC(=O)c1ccc(N)cc1)C(=O)N[C@@H](C)C(=O)N[C@@H](C)C(=O)N[C@@H](C)C(=O)N[C@@H](CCCCN)C(=O)O (H-[4Abz]KAAF[Abu]AAAK-OH),Stable

# The remaining lines, values ahead:
row,Stability,SMILES
1,Unstable,"C[C@H](NC(=O)[C@H](C)NC(=O)[C@H](CC(F)(F)F)NC(=O)[C@H](C)NC(=O)[C@H](Cc1ccccc1)NC(=O)[C@H](C)NC(=O)[C@H](C)NC(=O)[C@H](CCCCN)NC(=O)c1ccc(N)cc1)C(=O)N[C@@H](CCCCN)C(=O)O (H-[4Abz]KAAFA[Abu(4,4,4-F3)]AAK-OH)"
2,Stable,"C[C@H](NC(=O)[C@H](C)NC(=O)[C@H](CC(F)(F)F)NC(=O)[C@H](Cc1ccccc1)NC(=O)[C@H](C)NC(=O)[C@H](C)NC(=O)[C@H](CCCCN)NC(=O)c1ccc(N)cc1)C(=O)N[C@@H](C)C(=O)N[C@@H](CCCCN)C(=O)O (H-[4Abz]KAAF[Abu(4,4,4-F3)]AAAK-OH)"

# Same assay, conditions: elastase in Tris-HCl buffer; read-out: Drug degradation
row,"metabolised at 2 h, 20 umol/ml",SMILES
1,≤ 35%,"C[C@H](NC(=O)[C@H](C)NC(=O)[C@H](C)NC(=O)[C@H](Cc1ccccc1)NC(=O)[C@H](CC(F)F)NC(=O)[C@H](C)NC(=O)[C@H](CCCCN)NC(=O)c1ccc(N)cc1)C(=O)N[C@@H](C)C(=O)N[C@@H](CCCCN)C(=O)O (H-[4Abz]KA[Abu(4,4-F2)]FAAAAK-OH)"
2,≤ 35%,"C[C@H](NC(=O)[C@H](C)NC(=O)[C@H](CC(F)F)NC(=O)[C@H](Cc1ccccc1)NC(=O)[C@H](C)NC(=O)[C@H](C)NC(=O)[C@H](CCCCN)NC(=O)c1ccc(N)cc1)C(=O)N[C@@H](C)C(=O)N[C@@H](CCCCN)C(=O)O (H-[4Abz]KAAF[Abu(4,4-F2)]AAAK-OH)"
